These molecules were tested against T1, AKT1 (Homo sapiens, UniProt P31749) (assay: HTS ATP-utilizing enzyme assay, off-chip mobility-shift (Caliper HTS 250)). Conditions: kinase named = inhibitory activity/selectivity; test compound 10 μM; active = greater than three-sigma from mean.
T1 construct: purchased Upstate 14-276
T1 sequence (P31749 whole entry): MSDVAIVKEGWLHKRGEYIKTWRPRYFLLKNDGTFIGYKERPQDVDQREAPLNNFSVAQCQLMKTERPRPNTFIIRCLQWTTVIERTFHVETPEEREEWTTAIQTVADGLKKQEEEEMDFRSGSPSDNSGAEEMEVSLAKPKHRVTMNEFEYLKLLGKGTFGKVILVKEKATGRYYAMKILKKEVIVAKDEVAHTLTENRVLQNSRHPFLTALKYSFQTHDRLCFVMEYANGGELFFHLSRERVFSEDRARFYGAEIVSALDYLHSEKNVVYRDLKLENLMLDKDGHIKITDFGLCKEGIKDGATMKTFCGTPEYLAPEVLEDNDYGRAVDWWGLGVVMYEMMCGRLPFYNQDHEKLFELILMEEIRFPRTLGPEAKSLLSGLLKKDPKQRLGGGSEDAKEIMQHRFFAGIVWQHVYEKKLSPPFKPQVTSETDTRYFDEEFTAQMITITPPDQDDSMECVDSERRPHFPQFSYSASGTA
Format: biochemical
Procedure, shortened: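 AKT1 activity was measured by off-chip mobility shift (Caliper HTS 250) as the ratio of peptide substrate to phosphorylated product. Test compound was at 10 μM, with 2.5 h incubation at 20–22° C. EDTA wells served as 100% control and DMSO wells as 0%. Hits were called at three-sigma limits.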
In the case of `COc1ccc(-c2csc(N(CCCN3CCOCC3)C(=O)c3ccc(Br)s3)n2)cc1` [5-bromo-N-(4-(4-methoxyphenyl)thiazol-2-yl)-N-(3-morpholinopropyl)thiophene-2-carboxamide], the Activity is reported as “AKT1”.
`COc1ccc(-c2csc(N(CCCN3CCOCC3)C(=O)c3sccc3Br)n2)cc1` [3-bromo-N-(4-(4-methoxyphenyl)thiazol-2-yl)-N-(3-morpholinopropyl)thiophene-2-carboxamide] was tested, and the Activity was “AKT1”.
For `COc1ccc(-c2csc(N(CCCN3CCOCC3)C(=O)c3ccco3)n2)cc1` [N-(4-(4-methoxyphenyl)thiazol-2-yl)-N-(3-morpholinopropyl)furan-2-carboxamide], the Activity was “AKT1”.
For `COc1ccc(-c2csc(N(CCCN3CCOCC3)C(=O)c3cccc(Cl)n3)n2)cc1` [6-chloro-N-(4-(4-methoxyphenyl)thiazol-2-yl)-N-(3-morpholinopropyl)picolinamide], the Activity was “AKT1”.

These molecules were tested against T2, ZAP70 (Homo sapiens, UniProt P43403) in the same assay as above. Conditions: kinase named = inhibitory activity/selectivity; test compound 10 μM; active = greater than three-sigma from mean.
T2 sequence (P43403 1-619): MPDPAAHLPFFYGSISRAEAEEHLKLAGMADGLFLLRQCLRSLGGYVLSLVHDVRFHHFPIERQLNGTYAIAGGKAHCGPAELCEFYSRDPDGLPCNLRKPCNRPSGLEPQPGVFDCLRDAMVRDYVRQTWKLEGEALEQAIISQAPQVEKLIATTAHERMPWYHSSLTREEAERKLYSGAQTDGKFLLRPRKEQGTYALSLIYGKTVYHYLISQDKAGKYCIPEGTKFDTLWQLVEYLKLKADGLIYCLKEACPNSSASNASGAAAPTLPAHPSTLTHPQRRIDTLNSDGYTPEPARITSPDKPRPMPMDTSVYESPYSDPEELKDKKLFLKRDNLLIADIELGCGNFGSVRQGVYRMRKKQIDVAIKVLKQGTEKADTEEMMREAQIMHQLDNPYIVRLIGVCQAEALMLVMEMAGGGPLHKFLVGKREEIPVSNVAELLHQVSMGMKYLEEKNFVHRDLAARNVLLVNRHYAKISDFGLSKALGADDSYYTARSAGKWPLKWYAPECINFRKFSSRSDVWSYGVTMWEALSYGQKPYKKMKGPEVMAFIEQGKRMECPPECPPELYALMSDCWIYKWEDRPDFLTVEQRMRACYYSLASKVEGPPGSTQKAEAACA
Format: biochemical
Description: (§1) The following procedures describe the reagent and plate preparation for a HTS of an ATP-utilizing enzyme, such as a protein kinase, run in an off-chip mobility-shift assay format. The following provides an HTS protocol for running a protein kinase HTS screen on a Caliper HTS 250 microfluidics system. The following parameters are dependent on the protein kinase used and can be determined by one skilled in the art as part of a typical assay development process. For example, the peptide substrate used can be identified from the current literature, by screening a peptide library of potential protein kinase substrates, or by other applicable means accepted in the field.
(§2) Assays to determine the kinase inhibitory activity of chemical entities of the present disclosure were performed using a Caliper HTS 250 microfluidics device, Greiner U-bottom assay plates, a Multidrop for transfer of reagents, and Biomek FX (AMNCBM03) software. Initially, 2.4 μL of a 1 mM solution of a test compound in 100% DMSO was added to a well of the Greiner U-bottom plate. A single Greiner U-bottom plate having 24×16 wells could include multiple test compounds. Next, 40 μL of 1.06× Assay Buffer was added to each well of the assay plate. Using the Biomek FX, 10 μL of 0.5 M EDTA was added by the span-8 to wells, indicated as 100% Control and 2.4 μL of 100% DMSO was added by the span-8 to wells, indicated as 0% Control. Using the Multidrop, 10 μL of 2.5× Enzyme Buffer, followed by 10 μL of 2.5× Substrate Buffer was added to each well of the assay plate. The total reaction volume in each well was 25 μL, and the concentration of the test compound was 10 μM. The assay plate was incubated for 2.5 hrs at 20° C. to 22° C. After the incubation period, using the Multidrop, 45 μL of 1.55× Termination Buffer was added to each well of the assay plate to stop the reaction. The inhibition of the ATP-utilizing enzyme, such as a particular protein kinase, was determined by measuring the ratio of the peptide substrate to phosphorylated product for each well of the assay plate using the Caliper HTS 250 system.
(§3) The use of three-sigma statistical limits represents a conservative method for declaring potential hits among targets. The three-sigma activity, as well as the mean population activity, can be different for each target enzyme. This method has an expected false positive rate, from an in-control measurement process, of […].
(§4) Each chemical entity listed in Table 2 was tested for protein kinase inhibitory activity according to the biological assays and definitions of protein kinase inhibitory activity as described herein. For each exemplary compound listed in Table 2, the inhibitory activity for at least one protein kinase according to the biological assays and definitions of protein kinase inhibitory activity as described herein is indicated.
For `COc1ccc(-c2csc(N(CCCN3CCOCC3)C(=O)c3ccc(Br)s3)n2)cc1` [5-bromo-N-(4-(4-methoxyphenyl)thiazol-2-yl)-N-(3-morpholinopropyl)thiophene-2-carboxamide], the Activity was “ZAP70”.
For `COc1ccc(-c2csc(N(CCCN3CCOCC3)C(=O)c3ccccc3C#N)n2)cc1` [2-cyano-N-(4-(4-methoxyphenyl)thiazol-2-yl)-N-(3-morpholinopropyl)benzamide], the Activity was “ZAP70”.
With `COc1ccc(-c2csc(N(CCCN3CCOCC3)C(=O)c3sccc3Br)n2)cc1` [3-bromo-N-(4-(4-methoxyphenyl)thiazol-2-yl)-N-(3-morpholinopropyl)thiophene-2-carboxamide] the Activity was “ZAP70”.
With `COc1ccc(-c2csc(N(CCCN3CCOCC3)C(=O)c3nsc(Cl)c3Cl)n2)cc1` [4,5-dichloro-N-(4-(4-methoxyphenyl)thiazol-2-yl)-N-(3-morpholinopropyl)isothiazole-3-carboxamide] the Activity was “ZAP70”.
`COc1ccc(-c2csc(N(CCCN3CCOCC3)C(=O)c3conc3C)n2)cc1` [N-(4-(4-methoxyphenyl)thiazol-2-yl)-3-methyl-N-(3-morpholinopropyl)isoxazole-4-carboxamide] was tested, and the Activity was “ZAP70”.
For `COc1ccc(-c2csc(N(CCCN3CCOCC3)C(=O)c3cccc(Cl)n3)n2)cc1` [6-chloro-N-(4-(4-methoxyphenyl)thiazol-2-yl)-N-(3-morpholinopropyl)picolinamide], the Activity was “ZAP70”.
`COc1ccc(-c2csc(N(CCCN3CCOCC3)C(=O)c3ccc(C(C)=O)s3)n2)cc1` [5-acetyl-N-(4-(4-methoxyphenyl)thiazol-2-yl)-N-(3-morpholinopropyl)thiophene-2-carboxamide] was tested, and the Activity was “ZAP70”.

Each molecule was assayed against T3, DYRK2 (Homo sapiens, UniProt Q92630) in the same assay as above. Conditions: kinase named = inhibitory activity/selectivity; test compound 10 μM; active = greater than three-sigma from mean.
T3 sequence (Q92630 1-601): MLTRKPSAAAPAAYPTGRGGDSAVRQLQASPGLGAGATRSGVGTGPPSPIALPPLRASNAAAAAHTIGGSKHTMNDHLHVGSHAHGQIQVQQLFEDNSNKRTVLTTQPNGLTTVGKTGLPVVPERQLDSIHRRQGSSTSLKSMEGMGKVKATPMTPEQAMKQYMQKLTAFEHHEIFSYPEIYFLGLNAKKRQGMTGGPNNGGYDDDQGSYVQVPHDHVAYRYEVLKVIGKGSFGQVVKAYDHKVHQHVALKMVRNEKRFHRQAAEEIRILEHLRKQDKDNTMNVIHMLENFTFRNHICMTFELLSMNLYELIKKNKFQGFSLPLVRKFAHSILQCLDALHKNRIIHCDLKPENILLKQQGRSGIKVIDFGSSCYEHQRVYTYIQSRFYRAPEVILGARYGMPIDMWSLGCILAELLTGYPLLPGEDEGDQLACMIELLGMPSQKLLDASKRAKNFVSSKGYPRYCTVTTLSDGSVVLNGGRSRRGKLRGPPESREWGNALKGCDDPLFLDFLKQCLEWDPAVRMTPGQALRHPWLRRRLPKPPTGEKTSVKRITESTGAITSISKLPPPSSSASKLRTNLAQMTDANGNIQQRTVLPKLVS
Format: biochemical
Description: as §1, §2, §3, §4
With `COc1ccc(-c2csc(N(CCc3ccccc3)C(=O)CCC(=O)O)n2)cc1` [4-((4-(4-methoxyphenyl)thiazol-2-yl)(phenethyl)amino)-4-oxobutanoic acid] the Activity was “DYRK2”.
In the case of `COc1ccc(-c2csc(N(CC3CCCO3)C(=O)CCC(=O)O)n2)cc1` (centres unmarked) [4-((4-(4-methoxyphenyl)thiazol-2-yl)((tetrahydrofuran-2-yl)methyl)amino)-4-oxobutanoic acid], the Activity is reported as “DYRK2”.
For `COCCCN(C(=O)CCC(=O)O)c1nc(-c2ccc(OC)cc2)cs1` [4-((4-(4-methoxyphenyl)thiazol-2-yl)(3-methoxypropyl)amino)-4-oxobutanoic acid], the Activity was “DYRK2”.
In the case of `CCC(=O)N(CC1CCCO1)c1nc(-c2ccc(OC)cc2)cs1` (centres unmarked) [N-(4-(4-methoxyphenyl)thiazol-2-yl)-N-((tetrahydrofuran-2-yl)methyl)propionamide], the Activity is reported as “DYRK2”.
With `COc1ccc(-c2csc(N(CCCN3CCOCC3)C(=O)Cc3cccc(Cl)c3)n2)cc1` [2-(3-chlorophenyl)-N-(4-(4-methoxyphenyl)thiazol-2-yl)-N-(3-morpholinopropyl)acetamide] the Activity was “DYRK2”.
With `COc1ccc(-c2csc(N(C)C(=O)CCC(=O)O)n2)cc1` [4-((4-(4-methoxyphenyl)thiazol-2-yl)(methyl)amino)-4-oxobutanoic acid] the Activity was “DYRK2”.
In the case of `COc1ccc(-c2csc(N(Cc3ccco3)C(=O)CCC(=O)O)n2)cc1` [4-((furan-2-ylmethyl)(4-(4-methoxyphenyl)thiazol-2-yl)amino)-4-oxobutanoic acid], the Activity is reported as “DYRK2”.
For `CCC(=O)N(CC)c1nc(-c2ccc(OC)cc2)cs1` [N-ethyl-N-(4-(4-methoxyphenyl)thiazol-2-yl)propionamide], the Activity was “DYRK2”.
For `COc1ccc(-c2csc(N(CCCN3CCOCC3)C(=O)c3ccco3)n2)cc1` [N-(4-(4-methoxyphenyl)thiazol-2-yl)-N-(3-morpholinopropyl)furan-2-carboxamide], the Activity was “DYRK2”.
`COc1ccc(-c2csc(N(CCCN3CCOCC3)C(=O)c3conc3C)n2)cc1` [N-(4-(4-methoxyphenyl)thiazol-2-yl)-3-methyl-N-(3-morpholinopropyl)isoxazole-4-carboxamide] was tested, and the Activity was “DYRK2”.
In the case of `COCCN(C(=O)CCC(=O)O)c1nc(-c2ccc(OC)cc2)cs1` [4-((2-methoxyethyl)(4-(4-methoxyphenyl)thiazol-2-yl)amino)-4-oxobutanoic acid], the Activity is reported as “DYRK2”.
For `COCCN(C(C)=O)c1nc(-c2ccc(OC)cc2)cs1` [N-(2-methoxyethyl)-N-(4-(4-methoxyphenyl)thiazol-2-yl)acetamide], the Activity was “DYRK2”.
`CCN(CC)CCCN(C(=O)COc1ccc(C)cc1)c1nc(-c2ccc(OC)cc2)cs1` [N-(3-(diethylamino)propyl)-N-(4-(4-methoxyphenyl)thiazol-2-yl)-2-(p-tolyloxy)acetamide] was tested, and the Activity was “DYRK2”.
In the case of `COc1ccc(-c2csc(N(CCc3ccc(OC)c(OC)c3)C(=O)CCC(=O)O)n2)cc1` [4-((3,4-dimethoxyphenethyl)(4-(4-methoxyphenyl)thiazol-2-yl)amino)-4-oxobutanoic acid], the Activity is reported as “DYRK2”.
In the case of `COc1ccc(-c2csc(N(C)C(C)=O)n2)cc1` [N-(4-(4-methoxyphenyl)thiazol-2-yl)-N-methylacetamide], the Activity is reported as “DYRK2”.
In the case of `CCN(C(=O)CCC(=O)O)c1nc(-c2ccc(OC)cc2)cs1` [4-(ethyl(4-(4-methoxyphenyl)thiazol-2-yl)amino)-4-oxobutanoic acid], the Activity is reported as “DYRK2”.
With `COc1ccc(-c2csc(N(CCCN3CCOCC3)C(=O)CC(C)(C)C)n2)cc1` [N-(4-(4-methoxyphenyl)thiazol-2-yl)-3,3-dimethyl-N-(3-morpholinopropyl)butanamide] the Activity was “DYRK2”.
For `COc1ccc(-c2csc(N(CCCN3CCOCC3)C(C)=O)n2)cc1` [N-(4-(4-methoxyphenyl)thiazol-2-yl)-N-(3-morpholinopropyl)acetamide], the Activity was “DYRK2”.
`COc1ccc(-c2csc(N(Cc3ccccc3)C(=O)CCC(=O)O)n2)cc1` [4-(benzyl(4-(4-methoxyphenyl)thiazol-2-yl)amino)-4-oxobutanoic acid] was tested, and the Activity was “DYRK2”.
With `CCC(=O)N(CCCOC)c1nc(-c2ccc(OC)cc2)cs1` [N-(4-(4-methoxyphenyl)thiazol-2-yl)-N-(3-methoxypropyl)propionamide] the Activity was “DYRK2”.

What follows are molecules tested against CHEK2 (Homo sapiens, UniProt O96017) in the same assay as above. Conditions: kinase named = inhibitory activity/selectivity; test compound 10 μM; active = greater than three-sigma from mean.
Chain of CHEK2 (O96017 whole entry): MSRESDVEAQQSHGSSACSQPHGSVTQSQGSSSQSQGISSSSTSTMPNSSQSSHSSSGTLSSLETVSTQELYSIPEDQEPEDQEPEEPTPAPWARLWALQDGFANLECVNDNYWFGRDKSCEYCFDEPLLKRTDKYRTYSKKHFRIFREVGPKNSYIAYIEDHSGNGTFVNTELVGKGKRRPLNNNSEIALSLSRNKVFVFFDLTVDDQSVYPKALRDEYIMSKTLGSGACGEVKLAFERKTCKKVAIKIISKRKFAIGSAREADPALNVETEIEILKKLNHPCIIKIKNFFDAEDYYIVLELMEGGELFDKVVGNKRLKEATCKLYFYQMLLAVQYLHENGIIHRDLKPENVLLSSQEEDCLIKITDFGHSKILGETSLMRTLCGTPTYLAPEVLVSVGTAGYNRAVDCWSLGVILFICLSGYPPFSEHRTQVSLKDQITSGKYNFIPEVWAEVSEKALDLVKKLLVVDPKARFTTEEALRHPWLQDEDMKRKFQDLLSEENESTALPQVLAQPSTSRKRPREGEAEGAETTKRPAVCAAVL
Format: biochemical
Description: as §1, §2, §3, §4
For `CCN(CC)CCCN(C(=O)c1ccccc1Cl)c1nc(-c2cc(OC)ccc2OC)cs1` [2-chloro-N-(3-(diethylamino)propyl)-N-(4-(2,5-dimethoxyphenyl)thiazol-2-yl)benzamide], the Activity was “CHEK2”.

Source: patent US7795290B2 (Genentech, Inc., priority 2004, dated 2010)
